The source of these data is article PMC11063903, “Engineering a human P2X2 receptor with altered ligand selectivity in yeast” (The Journal of Biological Chemistry, 2024).

A word on the EC50: it is the concentration needed to bring the measured effect to its halfway point. One may read the IC50 as the concentration that inhibits the measured activity by half.

Assay [1] deals with T1, human P2X2 receptor (Homo sapiens, UniProt Q9UBL9).
T1 construct: expressed in transfected cells; host or cells: S. cerevisiae BY4741 background, P2X2 genome-integrated under a galactose-inducible promoter
T1 sequence (Q9UBL9 1-471): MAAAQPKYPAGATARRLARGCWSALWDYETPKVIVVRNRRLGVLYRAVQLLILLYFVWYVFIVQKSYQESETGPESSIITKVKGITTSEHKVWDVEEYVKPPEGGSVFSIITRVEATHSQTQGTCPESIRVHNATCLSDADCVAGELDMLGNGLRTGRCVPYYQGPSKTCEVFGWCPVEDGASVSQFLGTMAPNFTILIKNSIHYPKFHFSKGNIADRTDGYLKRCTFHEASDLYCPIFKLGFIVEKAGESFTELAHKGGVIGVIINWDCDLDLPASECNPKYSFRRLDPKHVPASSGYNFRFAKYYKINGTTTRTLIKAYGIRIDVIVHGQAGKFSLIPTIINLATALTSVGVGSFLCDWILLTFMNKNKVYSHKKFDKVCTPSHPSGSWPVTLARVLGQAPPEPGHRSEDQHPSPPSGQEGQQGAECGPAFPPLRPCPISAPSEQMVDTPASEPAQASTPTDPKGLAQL
Put plainly: GCaMP calcium assay of P2X2 expressed in yeast S. cerevisiae, agonist response. The settings on record: yeast; for EC50: read-out: EC50. Format: cell-based. From the text:
Although P2X receptors are expressed in many eukaryotic organisms including some fungi ([24]), they are not present in S. cerevisiae. For recombinant expression to yield functional P2X channels, receptor proteins must be correctly folded, assembled into trimers, and efficiently trafficked to the plasma membrane. To assess whether P2X ion channels could functionally gate in S. cerevisiae the canonical isoforms of P2X1-7 were co-expressed with aequorin, a calcium-activated photoprotein from the jellyfish Aequorea victoria.
(§1) Genetic knockouts of the calnexin homolog (ΔCne1p) and vacuolar calcium transporter (Δ Vcx1p) (n = 3) were compared to the WT yeast strain (n = 2). […] Statistical analysis was performed using one-way ANOVA with Dunnett’s multiple comparisons test where ∗∗ is p ≤ 0.01. […] Yeast were injected with ATP at 21 s and onset rates from the last six points (40–48 s) were used for calculating the dose response in (D). E and F, kinetic and dose–response measurements of P2X2 with the GCaMP reporter with ATP (n = 4), partial agonist BzATP (n = 3), and agonist 2-chloro-ATP (n = 4). Figures (D and F) share the figure legend with (C). […] Suramin was pre-equilibrated with P2X2-yeast for 10 min and 5 μM ATP was injected.
To expand the assay throughput to accommodate several 96-well plates at a time, we required the acquisition of short-duration signals. Since GCaMP signals are typically measured in terms of ΔF/F0, where ΔF is Fmax-Fmin, and since the signal takes several minutes to reach Fmax, we instead attempted to correlate the rate of signal onset (rather than its amplitude) with channel activity.
Having optimized our yeast strains and assay throughput, we sought to further validate the function of human P2X2 in the yeast host.
GCaMP assays were performed as follows. P2X2 GCaMP strains were designed with a bi-cistronic reporter, in which the GCaMP protein was followed by a 2A peptide and a mScarletI reporter ([53]). The co-translated mScarletI was designed to act as a control for plasmid loss, GCaMP breakage via nonsense mutation, and contamination. […] P2X2-GCaMP strains were cultured and induced as previously described. Samples were induced for 24 h to allow for the accumulation of the mature GCaMP protein. Cells were washed three times in 0.1 M MES/Tris buffer and resuspended with MES/Tris with supplemental calcium. Cells were loaded onto a black, clear bottom microplate and imaged on a FlexStation3 plate reader. Samples were imaged in “flex” mode. Samples were imaged for 48 s at an interval of 1.6 s. Fluorescence was measured with an excitation at 485 nm, and emission 525 nm. At the 21 s mark, 100 μl ligand solution was transferred to the cells. For strains with mScarlet, fluorescence was read with excitation 570 nm/emission 610 nm. Slopes were calculated from the last 6 points of measurement and were normalized to the positive control samples. Any replicate in which the mScarlet value was measured to be over 2 standard deviations less than the mean for that set was discarded from further analysis.

In assay [2] the test system is P2X2. The settings on record: mammalian cells; cited from earlier work.
Assay [3] deals with P2X2. On the set-up: method as in PMID 12885270. The conditions noted are these: read-out: reported IC50 values; cited from earlier work.
The target of assay [4] is T1, human P2X2 receptor. Put plainly: Suramin inhibition of ATP-stimulated P2X2 gating in yeast, GCaMP. It is filed as cell-based. The settings on record: suramin pre-equilibrated 10 min, 5 μM ATP injected, n = 4; read-out: IC50 (second value in brackets) (converted). As for the experimental part:
as §1, with “injected. […]” for “injected.”
GCaMP assays were performed as follows. […] Cells were loaded onto a black, clear bottom microplate and imaged on a FlexStation3 plate reader. […] Fluorescence was measured with an excitation at 485 nm, and emission 525 nm. […] For strains with mScarlet, fluorescence was read with excitation 570 nm/emission 610 nm. Slopes were calculated from the last 6 points of measurement and were normalized to the positive control samples. Any replicate in which the mScarlet value was measured to be over 2 standard deviations less than the mean for that set was discarded from further analysis.

Setting [5] is: kinetic and dose-response GCaMP assay, Fig. 1E-F.

For the compound “2′(3′)-O-(4-Benzoylbenzoyl)adenosine-5′-triphosphate [BzATP]”, the “peak amplitudes relative to the canonical ATP ligand” value on human P2X2 receptor [1] (GCaMP kinetic assay) was “less than 50%”. On human P2X2 receptor [1] (setting [5]), the pEC50 is listed as 5.89 ± 0.096 M and the EC50 came to 1280 nM.

For the compound `Nc1nc(Cl)nc2c1ncn2[C@@H]1O[C@H](COP(=O)(O)OP(=O)(O)OP(=O)(O)O)[C@@H](O)[C@H]1O` [2-Chloro ATP, 2-Chloro-Adenosinetriphosphate], the figures for the EC50 in the assay with P2X2 [2] and at human P2X2 receptor [1] (setting [5]) were 2500 nM and 1000 nM, respectively.

On to `Cc1ccc(C(=O)Nc2ccc(S(=O)(=O)O)c3cc(S(=O)(=O)O)cc(S(=O)(=O)O)c23)cc1NC(=O)c1cccc(NC(=O)Nc2cccc(C(=O)Nc3cc(C(=O)Nc4ccc(S(=O)(=O)O)c5cc(S(=O)(=O)O)cc(S(=O)(=O)O)c45)ccc3C)c2)c1` [suramin], for which the figures for the IC50 with P2X2 [3] and at human P2X2 receptor [4] were 10000 nM and 26900 nM, respectively.
